According to patent US20160228506A1, “Compositions and Formulations for Prevention and Reduction of Tumorigenesis, Cancer Cell Proliferation and Invasion, and Methods of Production and Use Thereof in Cancer Treatment” (PRONUTRIA, INC., priority 2013, published 2016):

Key:
male Zucker fatty rats = assay: OGTT in Zucker fatty rats: SEQID-00105, alogliptin and combination, blood glucose; type: in vivo, rat; details: OGTT glucose 2 g/kg
Description: In another experiment, an OGTT was performed in 24, fasted, male Zucker fatty rats with indwelling jugular vein catheters (JVC) to assess the acute effects of nutritive protein dosing on glycemic control as well as insulin and GLP-1 levels. The capacity of SEQID-00105 to improve glucose control was tested by comparing the blood glucose excursion of SEQID-00105 to alogliptin to SEQID-00105+alogliptin to vehicle in the context of an oral glucose tolerance test. All rodents were approximately 10-11 weeks old, weighed average of approximately 430 g and acclimated for 4-5 days prior to testing. Prior to treatment, all rats were fasted overnight for fourteen hours. […] N=6 rats per treatment group. The error bars shown are the standard errors of the mean. Each group was compared post hoc on GraphPad Prism 6, two-way ANOVA, Dunnett's multiple comparisons test first comparing within each group to the fasting glucose concentration, followed by a comparison of each time point to vehicle. […] The integrated area under curve (AUC) was calculated on Microsoft Excel using the Linear-Log Trapezoidal Method and two-way ANOVA and Dunnett's multiple comparisons tests was conducted on GraphPad Prism 6.03.

burn injury = details: 0.35 g/kg supplementation, cited from earlier work
[1] = tested on: serotonin (5-HT) synthesis; details: oral intake of free Tryptophan; cited from earlier work
healthy subjects = details: oral supplementation, vs control; cited from earlier work
Human transglutaminase = target: T1, Human transglutaminase (Homo sapiens, UniProt Q08188); details: read-out: Kd for calcium; cited from earlier work
T1 sequence (Q08188 1-693): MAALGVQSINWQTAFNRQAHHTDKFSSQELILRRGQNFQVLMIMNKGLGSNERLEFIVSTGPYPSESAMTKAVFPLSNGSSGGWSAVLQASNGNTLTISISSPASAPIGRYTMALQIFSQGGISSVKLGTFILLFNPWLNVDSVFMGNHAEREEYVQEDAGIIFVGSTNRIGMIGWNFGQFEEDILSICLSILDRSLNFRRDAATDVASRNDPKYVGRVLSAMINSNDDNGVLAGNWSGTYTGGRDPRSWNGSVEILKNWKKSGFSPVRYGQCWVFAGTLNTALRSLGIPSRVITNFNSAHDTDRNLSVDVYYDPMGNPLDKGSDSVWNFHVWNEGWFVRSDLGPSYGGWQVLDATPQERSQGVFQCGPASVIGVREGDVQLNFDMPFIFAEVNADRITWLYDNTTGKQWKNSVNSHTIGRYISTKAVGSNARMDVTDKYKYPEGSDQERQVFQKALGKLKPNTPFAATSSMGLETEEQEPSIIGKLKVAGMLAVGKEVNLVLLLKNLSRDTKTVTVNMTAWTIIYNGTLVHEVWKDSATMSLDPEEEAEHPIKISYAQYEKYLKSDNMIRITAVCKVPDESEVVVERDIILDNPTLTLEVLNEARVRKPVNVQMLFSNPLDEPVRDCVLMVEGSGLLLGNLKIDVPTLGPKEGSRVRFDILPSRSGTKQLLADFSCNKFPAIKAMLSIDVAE

[2] = tested on: ribosomal protein S6 (rps6); assay: AlphaScreen SureFire rps6 phosphorylation in primary rat skeletal muscle cells; type: cell-based; details: primary RSkMC, different Leucine concentrations
Description: Primary Rat Skeletal Muscle Cell (RSKMC) culture. RSKMC were isolated using protocol described herein and cryopreserved in liquid nitrogen. The cells were also maintained in RSKMC medium (Cell Applications) in T75 tissue flask in a 37° C., 5% CO2 tissue culture incubator (Model 3110, Thermo Fisher Scientific). The cells were split every three day when they reached ˜90% confluency. RSKMC cells were cultured in RSKMC medium in T75 tissue flask to 100% confluency. The culture medium was aspirated from the culture flask and rinsed once with 10 ml of DPBS, and then 1.5 ml of 0.25% trypsin/EDTA was added to the cells. After the cells were detached from the flask, 10 ml of culture medium were added. The medium was pipetted up and down with a 10 ml pipet to detach the cells from the flask. The cells were then seeded into clear bottom 96-well tissue culture plates at a density of 50,000 cells per well. Following overnight culture in a 37° C., 5% CO2 incubator, the cells were starved over a period of 4 hours with starvation DME/F12 medium without FBS and leucine in a 37° C., 5% CO2 tissue culture incubator, then starved for another hour incubation with Hank's Buffered Salt Solution (HBSS). The cells were stimulated with different concentrations of leucine in starvation medium for 15 and 30 minutes. […]

[3] = Intact half-life during simulated gastric fluid (SGF) digestion; details: SGF pH 1.5, pepsin:polypeptide 1:20 w/w, 37° C.; intact protein
[4] = Thermostability, temperature of aggregation (ProteoStat Thermal Shift); type: physicochemical; details: Table E31D; heated 25° C. to 95° C.
Description: The thermostability of proteins in a buffer cocktail of Citric Acid and Dibasic Sodium Phosphate over a pH range of 2.8 to 7.1 (preparation described above in Table E31B) was determined using the ProteoStat® Thermal Shift Stability Kit (Enzo Life Sciences) according to the manufacturer's standard protocol. Briefly, protein solutions (˜10 mg/ml) containing 1× ProteoStat TS Detection Reagent were heated from 25° C. to 95° C. at a rate of 0.5° C. per 30 sec using a real-time PCR (rtPCR) thermocycler (BioRad) equipped with a plate reader (SynergyMx, Biotek) while monitoring the fluorescence with a Texas Red filter.

[5] = SGF digest of 168 nutritive polypeptide library, intact protein by LC-MS/MS; type: in vitro ADME; details: 168 nutritive polypeptide library SGF digest, LC-MS/MS spectral counts
Description: The in vitro intact half-life of multiple polypeptides in a complex mixture was determined using the simulated gastric in vitro digestion described above. Briefly, the 168 nutritive polypeptide library was generated as described herein by cloning, transforming, and expressing a gene library encoding 168 proteins as a single mixture. The recombinantly expressed proteins were purified from host cell proteins by IMAC purification as described herein.
The 168 Protein Library was treated with SGF as described above and the t=0 and t=10 min samples were analyzed for intact protein by LC-MS/MS. To begin, 10 μg of sample was loaded onto a 10% SDS-PAGE gel (Invitrogen) and run approximately 5 cm into the gel. The gel was excised into ten fractions from 100 kD to the dye front and the gel slices were processed by washing with 25 mM ammonium bicarbonate, followed by acetonitrile. Gel fractions were then reduced with 10 mM dithiothreitol at 60° C., followed by alkylation with 50 mM iodoacetamide at room temperature. […] The samples were then analyzed by nano LC/MS/MS using an EasynLC 1000 HPLC system interfaced to a ThermoFisher Q Exactive. […] A full list of detected proteins and their spectral counts (SpC) was generated and reported as a function of each collected gel fraction. […]

Cn1c(=O)cc(N2CCC[C@@H](N)C2)n(Cc2ccccc2C#N)c1=O [Alogliptin]
blood glucose compared to vehicle (male Zucker fatty rats; at 30 minutes following glucose challenge): significantly lower blood glucose than vehicle
blood glucose compared to vehicle (male Zucker fatty rats; at 60 minutes following glucose challenge): significantly lower than vehicle
glucose AUC compared to vehicle (male Zucker fatty rats; between time 0 and 120 minutes, P=0.0051): significantly less than vehicle
glucose AUC compared to vehicle (male Zucker fatty rats; between time 0 and 240 minutes, P=0.0054): significantly less than vehicle

NC(=O)CC[C@H](N)C(=O)O [Glutamine]
reduction in hospital stay (burn injury; 12-day burn injury study): 6 days
decrease in Lactulose/mannitol ratio (burn injury; after 3 days, vs 5.5× decrease): 8.8 ×

N[C@@H](Cc1c[nH]c2ccccc12)C(=O)O [Tryptophan]
increase of 5-HT production [1]: 2 fold

N=C(N)NCCC[C@H](N)C(=O)O [arginine, Arginine]
increase in collagen deposition at wound sites (healthy subjects): 2.4 ×

[Ca+2] [calcium, calcium (Ca2+)]
Kd (Human transglutaminase): 300 to 3000 nM

CC(C)C[C@H](N)C(=O)O [leucine]
phosphorylation of rps6 [2]: stimulates phorphorylation of rps6 in primary RSkMC in a dose-dependent manner

SEQID-00143: nutritive polypeptide (LYLEEVSKNLVEINPLKLEVKAKPWFVYTPMHGVGFDIFSTIVKKTLCLVEGK; listed as Saccharomyces cerevisiae)
SGF Half-life (t½) [3]: 0.3 min

SEQID-00212: nutritive polypeptide (LEEAKKKLLKDVEVLSQRLEEKALAYDKLEKTKTRLQQELDDLLVDLDHQ; listed as Bos taurus)
SGF Half-life (t½) [3]: 0.3 min

SEQID-00215: nutritive polypeptide (KKLLKDVEVLSQRLEEKALAYDKLEKTKTRLQQELDDLLVDLDHQRQIVSNLEKK; listed as Bos taurus)
SGF Half-life (t½) [3]: 2 min

SEQID-00218: nutritive polypeptide (GTIENLEEAKKKLLKDVEVLSQRLEEKALAYDKLEKTKTRLQQELDDLLVDLDHQ; listed as Bos taurus)
SGF Half-life (t½) [3]: 6 min

SEQID-00237: nutritive polypeptide (EEDKVNTLTKAKTKLEQQVDDLEGSLEQEKKLRMDLERAKRKLEGDLKLA; listed as Bos taurus)
Tagg (pH 7.1) [4]: 45
SGF Half-life (t½) [3]: 0.6 min

SEQID-00615: protein of the 168 nutritive polypeptide library (MAGIIHKIEETLHMGGGRKEEEEKRKGEGQGHGGYKGEGQGHGGYKGEGQG; listed as Vitis vinifera)
% Intact Protein at 10 min [5]: 85.7%
